This is an account of results in publication PMC11111852, “Exploration of the role of the penicillin binding protein 2c (Pbp2c) in inducible β-lactam resistance in Corynebacteriaceae” (Frontiers in Microbiology, 2024).

In one assay the target is T1, Pbp2c (Corynebacterium jeikeium, UniProt Q4JX88).
T1 construct: residues 32-593 without N-terminal transmembrane segment; E. coli BL21(DE3); 62,975 Da; monomer
The experiment in a line: electrospray mass spectrometry of covalent adduct. The following applies: 20 uM protein, 200 uM drug, 1 h, 20 °C, 100 mM MES pH 6.4. It is filed as binding.

The target in a further assay is T2, BlaCor (Corynebacterium jeikeium, UniProt Q4JX89).
T2 construct: gene jk0411; 276-residue protein with N-terminal His6-TEV tag (pET-TEV), E. coli BL21(DE3), observed mass 32,825 Da, monomer
T2 sequence (Q4JX89 entry or part of it): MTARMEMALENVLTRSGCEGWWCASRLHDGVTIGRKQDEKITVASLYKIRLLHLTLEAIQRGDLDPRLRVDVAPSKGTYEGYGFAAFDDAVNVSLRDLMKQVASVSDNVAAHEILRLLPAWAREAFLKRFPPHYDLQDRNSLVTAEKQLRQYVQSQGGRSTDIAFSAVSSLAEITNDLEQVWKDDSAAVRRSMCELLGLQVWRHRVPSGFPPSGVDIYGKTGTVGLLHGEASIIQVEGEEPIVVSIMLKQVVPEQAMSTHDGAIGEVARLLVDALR
The assay can be described thus: electrospray mass spectrometry of covalent adduct. Format: binding. The following applies: not hydrolysed.

T1 sequence (Q4JX88 entry or part of it): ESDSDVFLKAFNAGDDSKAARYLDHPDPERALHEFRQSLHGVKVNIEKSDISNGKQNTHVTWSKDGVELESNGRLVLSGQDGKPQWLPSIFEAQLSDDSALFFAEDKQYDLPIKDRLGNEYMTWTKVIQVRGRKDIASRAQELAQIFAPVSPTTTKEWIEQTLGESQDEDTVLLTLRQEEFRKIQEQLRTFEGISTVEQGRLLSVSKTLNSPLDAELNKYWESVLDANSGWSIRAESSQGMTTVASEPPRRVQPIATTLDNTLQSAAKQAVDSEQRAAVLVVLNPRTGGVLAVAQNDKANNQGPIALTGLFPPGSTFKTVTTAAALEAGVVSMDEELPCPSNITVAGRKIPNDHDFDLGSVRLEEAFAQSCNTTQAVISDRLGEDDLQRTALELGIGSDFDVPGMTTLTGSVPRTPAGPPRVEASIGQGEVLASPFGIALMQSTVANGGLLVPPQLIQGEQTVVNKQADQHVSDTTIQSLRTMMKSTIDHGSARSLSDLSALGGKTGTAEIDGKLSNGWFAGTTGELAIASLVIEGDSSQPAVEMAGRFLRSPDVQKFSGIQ

With `C[C@@H](O)[C@H]1C(=O)N2C(C(=O)O)=C(SCCN=CN)C[C@H]12` [imipenem], the “electrospray mass spectrometry of covalent adduct” value (from here on “electrospray mass spectrometry”) on Pbp2c is reported as “Incubation of Pbp2c with imipenem allowed the detection of adducts”.
For the molecule `C[C@@H](O)[C@H]1C(=O)N2C(C(=O)O)=C(S[C@@H]3CN[C@H](C(=O)N(C)C)C3)[C@H](C)[C@H]12` [meropenem], the “electrospray mass spectrometry” value on Pbp2c is “Adducts matching increments of the average mass of meropenem were also detected”.
For `O=C(Cc1cccs1)N[C@@H]1C(=O)N2C(C(=O)O)=C(/C=C/c3ccc([N+](=O)[O-])cc3[N+](=O)[O-])CS[C@H]12` [nitrocefin], the “electrospray mass spectrometry” value on BlaCor is on record as “the nitrocefin-BlaCor adduct was detected by mass spectrometry (data not shown)”.
